# Laboratory results as given in PubChem BioAssay AID1745844 (Carcinogenic Potency Database (CPDB), 2022).
# Where “and” joins values, the source holds several entries; their conditions need not be identical. Equal entries are not always repeated.
# Tested on: rodent lifetime carcinogenesis bioassay, tumor incidence TD50
# Assay: carcinogenic potency in animals, long-term in vivo studies, CPDB compilation (AID 1745844)
# Settings: rat, inhaled
structure (smiles),measurement,setting,value
C=CCl,TD50,"strain Sprague-Dawley, males, site: extrahepatic tissue, lesion: angiosarcoma, dosed 25 weeks, study length 115 weeks",468 mg/kg/day
same,TD50,"strain Sprague-Dawley, males, site: extrahepatic tissue, lesion: angiosarcoma, dosed 52 weeks, study length 123 weeks",63 mg/kg/day
same,TD50,"strain Sprague-Dawley, males, site: extrahepatic tissue, lesion: angiosarcoma, dosed 52 weeks, study length 131 weeks",14900 mg/kg/day
same,TD50,"strain Sprague-Dawley, males, site: extrahepatic tissue, lesion: angiosarcoma, dosed 52 weeks, study length 139 weeks",11.7 mg/kg/day
same,TD50,"strain Sprague-Dawley, males, site: kidney, lesion: nephroblastoma, dosed 25 weeks, study length 139 weeks",1940 mg/kg/day
same,TD50,"strain Sprague-Dawley, males, site: kidney, lesion: nephroblastoma, dosed 52 weeks, study length 123 weeks",37.8 mg/kg/day
same,TD50,"strain Sprague-Dawley, males, site: kidney, lesion: nephroblastoma, dosed 52 weeks, study length 131 weeks",2960 mg/kg/day
same,TD50,"strain Sprague-Dawley, males, site: kidney, lesion: nephroblastoma, dosed 52 weeks, study length 139 weeks",28.9 mg/kg/day
same,TD50,"strain Sprague-Dawley, males, site: liver, lesion: angioma, dosed 25 weeks, study length 115 weeks",580 mg/kg/day
same,TD50,"strain Sprague-Dawley, males, site: liver, lesion: angioma, dosed 25 weeks, study length 139 weeks",1030 mg/kg/day
same,TD50,"strain Sprague-Dawley, males, site: liver, lesion: angioma, dosed 52 weeks, study length 123 weeks",106 mg/kg/day and 54.3 mg/kg/day
same,TD50,"strain Sprague-Dawley, males, site: liver, lesion: angiosarcoma, dosed 25 weeks, study length 115 weeks",871 mg/kg/day
same,TD50,"strain Sprague-Dawley, males, site: liver, lesion: angiosarcoma, dosed 52 weeks, study length 123 weeks",76.7 mg/kg/day and 62.4 mg/kg/day
same,TD50,"strain Sprague-Dawley, males, site: liver, lesion: angiosarcoma, dosed 52 weeks, study length 130 weeks",90 mg/kg/day
same,TD50,"strain Sprague-Dawley, males, site: liver, lesion: angiosarcoma, dosed 52 weeks, study length 131 weeks",875 mg/kg/day
same,TD50,"strain Sprague-Dawley, males, site: liver, lesion: angiosarcoma, dosed 52 weeks, study length 139 weeks",75.8 mg/kg/day
same,TD50,"strain Sprague-Dawley, males, site: liver, lesion: hepatocellular carcinoma, dosed 52 weeks, study length 130 weeks",40.8 mg/kg/day
same,TD50,"strain Sprague-Dawley, males, site: liver, lesion: hepatoma, dosed 52 weeks, study length 123 weeks",152 mg/kg/day
same,TD50,"strain Sprague-Dawley, males, site: liver, lesion: hepatoma, dosed 52 weeks, study length 131 weeks",13400 mg/kg/day
same,TD50,"strain Sprague-Dawley, males, site: liver, lesion: several types, types named in the paper, dosed 52 weeks, study length 130 weeks",294 mg/kg/day
same,TD50,"strain Sprague-Dawley, males, site: pituitary gland, lesion: one or several types, types not named, dosed 52 weeks, study length 130 weeks",138 mg/kg/day
same,TD50,"strain Wistar, females, site: Zymbal's gland, lesion: squamous-cell carcinoma, dosed 52 weeks, study length 52 weeks",857 mg/kg/day
same,TD50,"strain Wistar, females, site: liver, lesion: angiosarcoma, dosed 52 weeks, study length 52 weeks",209 mg/kg/day
same,TD50,"strain Wistar, females, site: liver, lesion: hepatocellular carcinoma, dosed 52 weeks, study length 52 weeks",1810 mg/kg/day
same,TD50,"strain Wistar, females, site: liver, lesion: neoplastic nodule, dosed 52 weeks, study length 52 weeks",1810 mg/kg/day
same,TD50,"strain Wistar, females, site: lung, lesion: papillary adenoma, dosed 52 weeks, study length 52 weeks",1810 mg/kg/day
same,TD50,"strain Wistar, females, site: nasal cavity, lesion: olfactory epithelial carcinoma, dosed 52 weeks, study length 52 weeks",276 mg/kg/day
same,TD50,"strain Wistar, males, site: Zymbal's gland, lesion: carcinoma, dosed 52 weeks, study length 125 weeks",3540 mg/kg/day
same,TD50,"strain Wistar, males, site: Zymbal's gland, lesion: squamous-cell carcinoma, dosed 52 weeks, study length 52 weeks",330 mg/kg/day
same,TD50,"strain Wistar, males, site: any site (literature study), lesion: several types, types named in the paper, dosed 52 weeks, study length 78 weeks",5.44 mg/kg/day
same,TD50,"strain Wistar, males, site: any site (literature study), lesion: several types, types named in the paper, dosed 52 weeks, study length 125 weeks",1130 mg/kg/day
same,TD50,"strain Wistar, males, site: brain, lesion: neuroblastoma, dosed 52 weeks, study length 125 weeks",4140 mg/kg/day
same,TD50,"strain Wistar, males, site: brain, lesion: one or several types, types not named, dosed 52 weeks, study length 78 weeks",5820 mg/kg/day
same,TD50,"strain Wistar, males, site: extrahepatic tissue, lesion: angioma, dosed 52 weeks, study length 125 weeks",72700 mg/kg/day
same,TD50,"strain Wistar, males, site: extrahepatic tissue, lesion: angioma, dosed 52 weeks, study length 127 weeks",0.37 mg/kg/day
same,TD50,"strain Wistar, males, site: extrahepatic tissue, lesion: angiosarcoma, dosed 52 weeks, study length 125 weeks",8490 mg/kg/day
same,TD50,"strain Wistar, males, site: extrahepatic tissue, lesion: angiosarcoma, dosed 52 weeks, study length 127 weeks",1.05 mg/kg/day
same,TD50,"strain Wistar, males, site: kidney, lesion: nephroblastoma, dosed 52 weeks, study length 125 weeks",4510 mg/kg/day
same,TD50,"strain Wistar, males, site: liver, lesion: angioma, dosed 52 weeks, study length 125 weeks",3620 mg/kg/day
same,TD50,"strain Wistar, males, site: liver, lesion: angioma, dosed 52 weeks, study length 127 weeks",0.654 mg/kg/day
same,TD50,"strain Wistar, males, site: liver, lesion: angiosarcoma, dosed 52 weeks, study length 52 weeks",330 mg/kg/day
same,TD50,"strain Wistar, males, site: liver, lesion: angiosarcoma, dosed 52 weeks, study length 78 weeks",10.2 mg/kg/day
same,TD50,"strain Wistar, males, site: liver, lesion: angiosarcoma, dosed 52 weeks, study length 125 weeks",518 mg/kg/day
same,TD50,"strain Wistar, males, site: liver, lesion: hepatocellular carcinoma, dosed 52 weeks, study length 52 weeks",1140 mg/kg/day
same,TD50,"strain Wistar, males, site: liver, lesion: hepatoma, dosed 52 weeks, study length 125 weeks",4860 mg/kg/day
same,TD50,"strain Wistar, males, site: liver, lesion: hepatoma, dosed 52 weeks, study length 127 weeks",0.728 mg/kg/day
same,TD50,"strain Wistar, males, site: lung, lesion: angiosarcoma, dosed 52 weeks, study length 78 weeks",193 mg/kg/day
same,TD50,"strain Wistar, males, site: lung, lesion: one or several types, types not named, dosed 52 weeks, study length 78 weeks",867 mg/kg/day
same,TD50,"strain Wistar, males, site: nasal cavity, lesion: olfactory epithelial carcinoma, dosed 52 weeks, study length 52 weeks",533 mg/kg/day
same,carcinogen call,"strain Wistar, males, site: nose, lesion: one or several types, types not named, dosed 52 weeks, study length 78 weeks",positive
same,TD50,"strain Wistar, males, site: skin, lesion: one or several types, types not named, dosed 52 weeks, study length 78 weeks",5820 mg/kg/day
same,carcinogen call,"strain Wistar, males, site: testis, lesion: one or several types, types not named, dosed 52 weeks, study length 78 weeks",positive
